# Source: US8178570B2, “Tie-2 modulators and methods of use” (Exelixis, Inc., priority 2003, dated 2012)
# Molecular target: Tie-2 (Homo sapiens, UniProt Q02763)
# Experiment: Tie-2 tyrosine kinase activity: kinase-dependent ATP consumption (pEY substrate, luciferase/luciferin chemiluminescence) or 33P-ATP incorporation into substrate
# Type: biochemical
# Conditions: Tie-2 (human enzyme) inhibition, Table 2, class symbols A-D
# Procedure, shortened: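 Tie-2 kinase activity is read either as ATP consumption with pEY substrate by luciferase/luciferin chemiluminescence, or as 33P incorporation from 33P-ATP into plate-adsorbed substrate by scintillation counting. IC50 values are binned as A <50 nM, B >50–1000 nM, C >1000–<10,000 nM, and D ≥10,000 nM.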
# Tie-2, sequence (Q02763 23-1124): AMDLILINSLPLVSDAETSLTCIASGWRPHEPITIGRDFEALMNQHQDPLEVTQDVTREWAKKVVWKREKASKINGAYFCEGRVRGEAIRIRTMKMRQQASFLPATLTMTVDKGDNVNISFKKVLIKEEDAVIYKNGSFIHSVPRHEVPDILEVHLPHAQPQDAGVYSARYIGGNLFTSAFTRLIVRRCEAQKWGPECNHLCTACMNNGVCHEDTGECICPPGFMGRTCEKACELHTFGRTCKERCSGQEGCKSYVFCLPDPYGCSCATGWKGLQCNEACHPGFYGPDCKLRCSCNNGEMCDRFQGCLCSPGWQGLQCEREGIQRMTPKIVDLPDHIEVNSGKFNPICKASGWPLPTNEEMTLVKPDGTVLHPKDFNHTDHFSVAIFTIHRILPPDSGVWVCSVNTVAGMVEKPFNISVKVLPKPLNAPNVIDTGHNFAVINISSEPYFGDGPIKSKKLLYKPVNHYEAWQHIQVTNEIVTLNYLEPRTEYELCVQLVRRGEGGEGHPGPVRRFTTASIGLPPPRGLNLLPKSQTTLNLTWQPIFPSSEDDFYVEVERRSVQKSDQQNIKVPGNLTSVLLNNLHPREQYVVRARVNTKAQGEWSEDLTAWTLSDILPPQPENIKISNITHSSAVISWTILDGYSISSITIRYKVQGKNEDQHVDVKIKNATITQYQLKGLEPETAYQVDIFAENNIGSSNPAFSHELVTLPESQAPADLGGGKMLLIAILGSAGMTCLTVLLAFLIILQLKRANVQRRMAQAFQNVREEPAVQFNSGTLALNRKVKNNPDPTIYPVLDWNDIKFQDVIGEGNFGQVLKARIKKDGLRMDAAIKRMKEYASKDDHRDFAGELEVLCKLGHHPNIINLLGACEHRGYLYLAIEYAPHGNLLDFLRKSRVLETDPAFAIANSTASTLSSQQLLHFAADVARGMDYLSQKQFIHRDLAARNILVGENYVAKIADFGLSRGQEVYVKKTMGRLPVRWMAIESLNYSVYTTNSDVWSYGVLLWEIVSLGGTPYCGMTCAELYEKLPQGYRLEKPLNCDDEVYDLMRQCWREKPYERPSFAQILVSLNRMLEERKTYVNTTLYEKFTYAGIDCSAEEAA
row,Structure (SMILES),IC50
1,"COc1ccc(-c2nc(-c3ccncc3)nn2CCN(C(=O)Nc2ccccc2C)C2CCCC2)cc1Cl [Entry 86, N-(2-{5-[3-chloro-4-(methyloxy)phenyl]-3-pyridin-4-yl-1H-1,2,4-triazol-1-yl}ethyl)-N-cyclopentyl-N′-(2-methylphenyl)urea]",1 to 10 µM
2,"CCc1ccccc1NC(=O)N(CCn1nc(-c2ccncc2)nc1-c1ccc(OC)c(Cl)c1)C1CCCC1 [Entry 87, N-(2-{5-[3-chloro-4-(methyloxy)phenyl]-3-pyridin-4-yl-1H-1,2,4-triazol-1-yl}ethyl)-N-cyclopentyl-N′-(2-ethylphenyl)urea]",1 to 10 µM
3,"COc1ccc(-c2nc(-c3ccncc3)nn2CCN(C(=O)Nc2ccc(Cl)c(Cl)c2)C2CCCC2)cc1Cl [Entry 88, N-(2-{5-[3-chloro-4-(methyloxy)phenyl]-3-pyridin-4-yl-1H-1,2,4-triazol-1-yl}ethyl)-N-cyclopentyl-N′-(3,4-dichlorophenyl)urea]",≥ 10 µM
4,"CCCCCCNC(=O)N(CCn1nc(-c2ccncc2)nc1-c1ccc(OC)c(Cl)c1)C1CCCC1 [Entry 89, N-(2-{5-[3-chloro-4-(methyloxy)phenyl]-3-pyridin-4-yl-1H-1,2,4-triazol-1-yl}ethyl)-N-cyclopentyl-N′-hexylurea]",≥ 10 µM
5,"COc1ccc(-c2nc(-c3ccncc3)nn2CCN(C(=O)Nc2ccc(F)cc2)C2CCCC2)cc1Cl [Entry 90, N-(2-{5-[3-chloro-4-(methyloxy)phenyl]-3-pyridin-4-yl-1H-1,2,4-triazol-1-yl}ethyl)-N-cyclopentyl-N′-(4-fluorophenyl)urea]",≥ 10 µM
6,"COc1ccc(NC(=O)N(CCn2nc(-c3ccncc3)nc2-c2ccc(OC)c(Cl)c2)C2CCCC2)cc1 [Entry 91, N-(2-{5-[3-chloro-4-(methyloxy)phenyl]-3-pyridin-4-yl-1H-1,2,4-triazol-1-yl}ethyl)-N-cyclopentyl-N′-[4-(methyloxy)phenyl]urea]",≥ 10 µM
7,"COc1ccc(-c2nc(-c3ccncc3)nn2CCN(C(=O)NCc2ccccc2)C2CCCC2)cc1Cl [Entry 92, N-(2-{5-[3-chloro-4-(methyloxy)phenyl]-3-pyridin-4-yl-1H-1,2,4-triazol-1-yl}ethyl)-N-cyclopentyl-N′-(phenylmethyl)urea]",1 to 10 µM
8,"COc1ccc(-c2nc(-c3ccncc3)nn2CCN(C(=O)Nc2cc(C(F)(F)F)cc(C(F)(F)F)c2)C2CCCC2)cc1Cl [Entry 93, N′-[3,5-bis(trifluoromethyl)phenyl]-N-(2-{5-[3-chloro-4-(methyloxy)phenyl]-3-pyridin-4-yl-1H-1,2,4-triazol-1-yl}ethyl)-N-cyclopentylurea]",≥ 10 µM
9,"COc1ccc(-c2nc(-c3ccncc3)nn2CCN(C(=O)Nc2cc(OC)c(OC)c(OC)c2)C2CCCC2)cc1Cl [Entry 94, N-(2-{5-[3-chloro-4-(methyloxy)phenyl]-3-pyridin-4-yl-1H-1,2,4-triazol-1-yl}ethyl)-N-cyclopentyl-N′-[3,4,5-tris(methyloxy)phenyl]urea]",≥ 10 µM
10,"COc1ccc(-c2nc(-c3ccncc3)nn2CCN(C(=O)Nc2cccc(C(C)=O)c2)C2CCCC2)cc1Cl [Entry 95, N′-(3-acetylphenyl)-N-(2-{5-[3-chloro-4-(methyloxy)phenyl]-3-pyridin-4-yl-1H-1,2,4-triazol-1-yl}ethyl)-N-cyclopentylurea]",≥ 10 µM
11,"COc1ccc(-c2nc(-c3ccncc3)nn2CCN(C(=O)Nc2ccc(C)c(C)c2)C2CCCC2)cc1Cl [Entry 96, N-(2-{5-[3-chloro-4-(methyloxy)phenyl]-3-pyridin-4-yl-1H-1,2,4-triazol-1-yl}ethyl)-N-cyclopentyl-N′-(3,4-dimethylphenyl)urea]",≥ 10 µM
12,"COc1ccc(-c2nc(-c3ccncc3)nn2CCN(C(=O)Nc2ccc(Cl)cc2C(F)(F)F)C2CCCC2)cc1Cl [Entry 97, N-(2-{5-[3-chloro-4-(methyloxy)phenyl]-3-pyridin-4-yl-1H-1,2,4-triazol-1-yl}ethyl)-N′-[4-chloro-2-(trifluoromethyl)phenyl]-N-cyclopentylurea]",1 to 10 µM
13,"COc1ccc(-c2nc(-c3ccncc3)nn2CCN(C(=O)Nc2ccc(SC)cc2)C2CCCC2)cc1Cl [Entry 98, N-(2-{5-[3-chloro-4-(methyloxy)phenyl]-3-pyridin-4-yl-1H-1,2,4-triazol-1-yl}ethyl)-N-cyclopentyl-N′-[4-(methylthio)phenyl]urea]",≥ 10 µM
14,"COc1ccc(-c2nc(-c3ccncc3)nn2CCN(C(=O)Nc2ccc(C(C)=O)cc2)C2CCCC2)cc1Cl [Entry 99, N′-(4-acetylphenyl)-N-(2-{5-[3-chloro-4-(methyloxy)phenyl]-3-pyridin-4-yl-1H-1,2,4-triazol-1-yl}ethyl)-N-cyclopentylurea]",≥ 10 µM
15,"COc1ccc(-c2nc(-c3ccncc3)nn2CCN(C(=O)Nc2ccc(C(C)C)cc2)C2CCCC2)cc1Cl [Entry 100, N-(2-{5-[3-chloro-4-(methyloxy)phenyl]-3-pyridin-4-yl-1H-1,2,4-triazol-1-yl}ethyl)-N-cyclopentyl-N′-[4-(1-methylethyl)phenyl]urea]",≥ 10 µM
16,"COc1ccc(-c2nc(-c3ccncc3)nn2CCN(C(=O)Nc2ccc(C#N)cc2)C2CCCC2)cc1Cl [Entry 101, N-(2-{5-[3-chloro-4-(methyloxy)phenyl]-3-pyridin-4-yl-1H-1,2,4-triazol-1-yl}ethyl)-N′-(4-cyanophenyl)-N-cyclopentylurea]",≥ 10 µM

row,Structure (SMILES),IC50
1,"COc1ccc(-c2nc(-c3ccncc3)nn2CCN(C(=O)Nc2ccccc2-c2ccccc2)C2CCCC2)cc1Cl [Entry 102, N′-biphenyl-2-yl-N-(2-{5-[3-chloro-4-(methyloxy)phenyl]-3-pyridin-4-yl-1H-1,2,4-triazol-1-yl}ethyl)-N-cyclopentylurea]",≥ 10 µM
2,"CCCCCNC(=O)N(CCn1nc(-c2ccncc2)nc1-c1ccc(OC)c(Cl)c1)C1CCCC1 [Entry 103, N-(2-{5-[3-chloro-4-(methyloxy)phenyl]-3-pyridin-4-yl-1H-1,2,4-triazol-1-yl}ethyl)-N-cyclopentyl-N′-pentylurea]",≥ 10 µM
3,"CCCCCCCNC(=O)N(CCn1nc(-c2ccncc2)nc1-c1ccc(OC)c(Cl)c1)C1CCCC1 [Entry 104, N-(2-{5-[3-chloro-4-(methyloxy)phenyl]-3-pyridin-4-yl-1H-1,2,4-triazol-1-yl}ethyl)-N-cyclopentyl-N′-heptylurea]",≥ 10 µM
4,"COc1ccc(-c2nc(-c3ccncc3)nn2CCN(C(=O)Nc2cccc(Cl)c2)C2CCCC2)cc1Cl [Entry 105, N-(2-{5-[3-chloro-4-(methyloxy)phenyl]-3-pyridin-4-yl-1H-1,2,4-triazol-1-yl}ethyl)-N′-(3-chlorophenyl)-N-cyclopentylurea]",≥ 10 µM
5,"COc1ccc(-c2nc(-c3ccncc3)nn2CCN(C(=O)Nc2cccc(C)c2)C2CCCC2)cc1Cl [Entry 106, N-(2-{5-[3-chloro-4-(methyloxy)phenyl]-3-pyridin-4-yl-1H-1,2,4-triazol-1-yl}ethyl)-N-cyclopentyl-N′-(3-methylphenyl)urea]",≥ 10 µM
6,"COc1ccc(-c2nc(-c3ccncc3)nn2CCN(C(=O)NC(C)(C)C)C2CCCC2)cc1Cl [Entry 107, N-(2-{5-[3-chloro-4-(methyloxy)phenyl]-3-pyridin-4-yl-1H-1,2,4-triazol-1-yl}ethyl)-N-cyclopentyl-N′-(1,1-dimethylethyl)urea]",≥ 10 µM
7,"COc1ccc(-c2nc(-c3ccncc3)nn2CCN(C(=O)NC(C)C)C2CCCC2)cc1Cl [Entry 108, N-(2-{5-[3-chloro-4-(methyloxy)phenyl]-3-pyridin-4-yl-1H-1,2,4-triazol-1-yl}ethyl)-N-cyclopentyl-N′-(1-methylethyl)urea]",≥ 10 µM
8,"CCNC(=O)N(CCn1nc(-c2ccncc2)nc1-c1ccc(OC)c(Cl)c1)C1CCCC1 [Entry 109, N-(2-{5-[3-chloro-4-(methyloxy)phenyl]-3-pyridin-4-yl-1H-1,2,4-triazol-1-yl}ethyl)-N-cyclopentyl-N′-ethylurea]",≥ 10 µM
9,"CCCNC(=O)N(CCn1nc(-c2ccncc2)nc1-c1ccc(OC)c(Cl)c1)C1CCCC1 [Entry 110, N-(2-{5-[3-chloro-4-(methyloxy)phenyl]-3-pyridin-4-yl-1H-1,2,4-triazol-1-yl}ethyl)-N-cyclopentyl-N′-propylurea]",≥ 10 µM
10,"CCOc1ccc(NC(=O)N(CCn2nc(-c3ccncc3)nc2-c2ccc(OC)c(Cl)c2)C2CCCC2)cc1 [Entry 111, N-(2-{5-[3-chloro-4-(methyloxy)phenyl]-3-pyridin-4-yl-1H-1,2,4-triazol-1-yl}ethyl)-N-cyclopentyl-N′-[4-(ethyloxy)phenyl]urea]",1 to 10 µM
11,"CCc1ccc(NC(=O)N(CCn2nc(-c3ccncc3)nc2-c2ccc(OC)c(Cl)c2)C2CCCC2)cc1 [Entry 112, N-(2-{5-[3-chloro-4-(methyloxy)phenyl]-3-pyridin-4-yl-1H-1,2,4-triazol-1-yl}ethyl)-N-cyclopentyl-N′-(4-ethylphenyl)urea]",≥ 10 µM
12,"COc1ccc(-c2nc(-c3ccncc3)nn2CCN(C(=O)NCCc2ccccc2)C2CCCC2)cc1Cl [Entry 113, N-(2-{5-[3-chloro-4-(methyloxy)phenyl]-3-pyridin-4-yl-1H-1,2,4-triazol-1-yl}ethyl)-N-cyclopentyl-N′-(2-phenylethyl)urea]",≥ 10 µM
13,"C=C(C)c1cccc(C(C)(C)NC(=O)N(CCn2nc(-c3ccncc3)nc2-c2ccc(OC)c(Cl)c2)C2CCCC2)c1 [Entry 114, N-(2-{5-[3-chloro-4-(methyloxy)phenyl]-3-pyridin-4-yl-1H-1,2,4-triazol-1-yl}ethyl)-N-cyclopentyl-N′-{1-methyl-1-[3-(1-methylethenyl)phenyl]ethyl}urea]",≥ 10 µM
14,"COc1ccc(-c2nc(-c3ccncc3)nn2CCN(C(=O)Nc2ccccc2F)C2CCCC2)cc1Cl [Entry 115, N-(2-{5-[3-chloro-4-(methyloxy)phenyl]-3-pyridin-4-yl-1H-1,2,4-triazol-1-yl}ethyl)-N-cyclopentyl-N′-(2-fluorophenyl)urea]",≥ 10 µM
15,"COc1ccc(-c2nc(-c3ccncc3)nn2CCN(C(=O)Nc2ccc(F)cc2F)C2CCCC2)cc1Cl [Entry 116, N-(2-{5-[3-chloro-4-(methyloxy)phenyl]-3-pyridin-4-yl-1H-1,2,4-triazol-1-yl}ethyl)-N-cyclopentyl-N′-(2,4-difluorophenyl)urea]",≥ 10 µM
